What was measured:
[1] = tested on: cultured primary neurons expressing LAMP1-APEX2-V5; assay: CLA-tyramide proximity labeling of neuronal lysosomal proteins, imaging with HaloTag protein and antibody staining; assay type: cell-based, rat; settings: 150 μM CLA-tyramide, FIG. 2C
From the text: The exemplary system studied in this Example makes use of a unique substrate for proximity labeling, which is a CLA-phenol compound, which in some cases is referred to herein as a CLA-tyramide compound. As will be appreciated, the chemical structure of tyramide includes a phenol moiety. To establish efficacy, the exemplary system was used to detect proteins that are enriched in neuronal lysosomes with lysosome-targeted APEX2 (Lamp1-APEX2).
With reference to FIG. 2A, cultured primary neurons expressing LAMP1-APEX2-V5 were incubated with 0 μM, 50 μM, 150 μM, or 500 μM CLA-tyramide, respectively. Neurons were fixed, permeabilized, and incubated with HaloTag protein. Cells were then stained with antibodies against HaloTag, V5, and MAP5 to label CLA-tagged proteins, LAMP1-APEX2-V5 (lysosome APEX2), and neurons, respectively.
Line scans show the relative intensity of CLA-tagged proteins and LAMP1-APEX2-V5.

cilia and mitochondria = assay: CLA-tyramide labeling in cilia and mitochondria, detection with EGFP-HaloTag protein; assay type: cell-based; settings: 250 μM CLA-tyramide; FIGS. 3B and 3D
Description: CLA-tyramide labeling was conducted in cilia and mitochondria. FIGS. 3A and 3B show CLA-tyramide labeling in cilia. FIGS. 3C and 3D show CLA-tyramide labeling in mitochondria. FIGS. 3B and 3D are from experiments in which 250 μM CLA-tyramide was applied to cells. Cells were fixed, permeabilized, and incubated with EGFP-HaloTag protein.

APEX2 in the mouse brain = assay: CLA-tyramide (CLA-phenol) mediated proximity labeling in mouse brain; assay type: in vivo; settings: mouse brain samples; FIGS. 4A-4B
Description: CLA-tyramide (CLA-phenol) mediated proximity labeling was conducted in mouse brain. […] The mouse brain samples were fixed, permeabilized, and incubated with HaloTag protein. The samples were then stained with antibodies against HaloTag and V5 (on APEX2) to label CLA-tagged proteins and APEX2, respectively.

O=C(NCCOCCOCCCCCCCl)NCCc1ccc(O)cc1 [CLA-tyramide]
colocalization of CLA-tagged proteins and LAMP1-APEX2-V5 (line scans of relative intensity) [1]: Good colocalization | labeling in different subcellular compartments (cilia, mitochondria) (cilia and mitochondria): can be applied to different subcellular compartments | co-localization of CLA-tagged proteins and APEX2 (V5) (APEX2 in the mouse brain): good co-localization of most structures

From US20250123290A1, “BIOTIN-FREE PROXIMITY LABELING” (HOWARD HUGHES MEDICAL INSTITUTE, priority 2023, published 2025)
